Measurements as given in ChEMBL document CHEMBL1157750, “Synthesis and evaluation of 17alpha-arylestradiols as ligands for estrogen receptor alpha and beta” (J Med Chem, 2010).
“And” between values parts separate entries of the source, which are not always exact repeats. Equal values may be shown once. The source made the active and inactive calls. The rule behind the calls is not given here.

Legend:
Estrogen receptor beta [1] = target: T1, Estrogen receptor beta (Homo sapiens, UniProt Q92731)
Description: Binding affinity to ERbeta by fluorescence polarization-based competitive binding assay

MCF7 [2] = experiment: Estrogenic activity in human MCF7 cells assessed as induction of cell proliferation at 100 nM after 6 days by fluorescence assay; type: functional, cell-based
MCF7 [3] = experiment: Estrogenic activity in human MCF7 cells assessed as induction of cell proliferation at 0.001 to 1 nM after 6 days by fluorescence assay; type: functional, cell-based
Estrogen receptor beta [4] = target: T1, Estrogen receptor beta; remark: listed apart in the source
Description: Transactivation of human ERbeta expressed in HEK293 cells after 18 hrs by luciferase reporter gene assay

MCF7 [5] = experiment: Estrogenic activity in human MCF7 cells assessed as induction of cell proliferation at 1 nM after 6 days by fluorescence assay; type: functional, cell-based
Estrogen receptor [6] = target: T2, Estrogen receptor (Homo sapiens, UniProt P03372)
T2 sequence (P03372 whole entry): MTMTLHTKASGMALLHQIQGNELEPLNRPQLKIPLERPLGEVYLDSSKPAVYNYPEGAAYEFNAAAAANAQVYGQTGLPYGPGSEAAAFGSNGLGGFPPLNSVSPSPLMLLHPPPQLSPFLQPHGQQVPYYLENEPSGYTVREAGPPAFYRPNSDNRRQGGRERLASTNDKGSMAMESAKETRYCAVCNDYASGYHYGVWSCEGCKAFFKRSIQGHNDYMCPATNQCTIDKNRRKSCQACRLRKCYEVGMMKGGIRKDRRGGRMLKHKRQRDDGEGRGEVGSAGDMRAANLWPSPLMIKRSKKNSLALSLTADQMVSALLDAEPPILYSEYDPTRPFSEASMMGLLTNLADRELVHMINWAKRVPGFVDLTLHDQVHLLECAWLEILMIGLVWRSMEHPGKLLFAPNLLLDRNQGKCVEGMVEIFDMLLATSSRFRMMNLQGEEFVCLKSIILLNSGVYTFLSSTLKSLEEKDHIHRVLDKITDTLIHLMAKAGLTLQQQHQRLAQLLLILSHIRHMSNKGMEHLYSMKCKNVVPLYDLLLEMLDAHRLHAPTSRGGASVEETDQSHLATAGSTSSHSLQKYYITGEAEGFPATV
Description: Binding affinity to ERalpha by fluorescence polarization-based competitive binding assay

Estrogen receptor [7] = target: T2, Estrogen receptor; remark: listed apart in the source
Description: Transactivation of human ERalpha expressed in HEK293 cells after 18 hrs by luciferase reporter gene assay

Homo sapiens = species: Homo sapiens; experiment: Selectivity ratio of EC50 for human ERbeta to EC50 for human ERalpha

T1 sequence (Q92731 whole entry): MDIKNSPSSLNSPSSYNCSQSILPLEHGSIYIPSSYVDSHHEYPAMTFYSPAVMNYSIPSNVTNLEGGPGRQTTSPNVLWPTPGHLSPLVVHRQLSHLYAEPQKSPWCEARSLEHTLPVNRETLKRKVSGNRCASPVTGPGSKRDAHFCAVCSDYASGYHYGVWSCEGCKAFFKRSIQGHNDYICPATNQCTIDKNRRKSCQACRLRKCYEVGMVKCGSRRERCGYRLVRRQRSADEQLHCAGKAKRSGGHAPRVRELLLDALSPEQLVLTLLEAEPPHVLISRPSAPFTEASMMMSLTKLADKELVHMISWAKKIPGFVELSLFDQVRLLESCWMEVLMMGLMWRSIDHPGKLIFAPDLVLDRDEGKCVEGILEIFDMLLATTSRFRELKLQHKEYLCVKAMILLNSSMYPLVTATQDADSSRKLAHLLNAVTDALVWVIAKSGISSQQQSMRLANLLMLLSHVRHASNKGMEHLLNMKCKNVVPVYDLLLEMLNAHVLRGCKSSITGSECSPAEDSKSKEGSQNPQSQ

Row | SMILES | IC50 (Estrogen receptor beta [1]) [nM] | Activity (MCF7 [2]) | Activity (MCF7 [3]) | EC50 (Estrogen receptor beta [4]) | Activity (MCF7 [5]) | IC50 (Estrogen receptor [6]) [nM] | EC50 (Estrogen receptor [7]) [nM] | Ratio EC50 (Homo sapiens)
1 | Cc1ccc(S(=O)(=O)N2Cc3ccc([C@]4(O)CC[C@H]5[C@@H]6CCc7cc(O)ccc7[C@H]6CC[C@@]54C)cc3C2)cc1 | 500 | Active | Active | 242 nM |  |  |  | 
2 | CCOC(=O)C1(C#N)Cc2ccc([C@]3(O)CC[C@H]4[C@@H]5CCc6cc(O)ccc6[C@H]5CC[C@@]43C)cc2C1 (some centres not stated) | 53.6 | Active | Active | 22.7 nM |  |  |  | 
3 | CC(=O)C1(C(C)=O)Cc2ccc([C@]3(O)CC[C@H]4[C@@H]5CCc6cc(O)ccc6[C@H]5CC[C@@]43C)cc2C1 | 254 | Active |  | 221 nM | Active | 243 | 336 | 
4 | CCOC(=O)C1(C(=O)OCC)Cc2ccc([C@]3(O)CC[C@H]4[C@@H]5CCc6cc(O)ccc6[C@H]5CC[C@@]43C)cc2C1 | 1080 | Active | Active | 175 nM and 174 nM |  | 492 | 14.1 | 13
5 | CCOC(=O)C1(C(C)=O)Cc2ccc([C@]3(O)CC[C@H]4[C@@H]5CCc6cc(O)ccc6[C@H]5CC[C@@]43C)cc2C1 (some centres not stated) | 319 | Active | Active | 34.6 nM |  |  |  | 
6 | C[C@]12CC[C@@H]3c4ccc(O)cc4CC[C@H]3[C@@H]1CC[C@@]2(O)c1ccc2c(c1)COC2 |  | Active | Active |  |  |  |  | 
